Data published in patent US20260234125A1, “CYCLIC AMINE DERIVATIVE, AND COMPOSITION AND USE THEREOF” (SHANGHAI JINGXIN BIOMEDICAL CO., LTD., priority 2023, published 2026).

These compounds were tested against T1, human Apo(a) protein (Homo sapiens, UniProt P08519) (assay: BLI affinity of compounds to Apo(a)). Conditions: biotinylated apolipoprotein(a) on SA sensor, compound 100 nM.
T1 construct: biotin (biotinylated)
T1 sequence (P08519 20-2040): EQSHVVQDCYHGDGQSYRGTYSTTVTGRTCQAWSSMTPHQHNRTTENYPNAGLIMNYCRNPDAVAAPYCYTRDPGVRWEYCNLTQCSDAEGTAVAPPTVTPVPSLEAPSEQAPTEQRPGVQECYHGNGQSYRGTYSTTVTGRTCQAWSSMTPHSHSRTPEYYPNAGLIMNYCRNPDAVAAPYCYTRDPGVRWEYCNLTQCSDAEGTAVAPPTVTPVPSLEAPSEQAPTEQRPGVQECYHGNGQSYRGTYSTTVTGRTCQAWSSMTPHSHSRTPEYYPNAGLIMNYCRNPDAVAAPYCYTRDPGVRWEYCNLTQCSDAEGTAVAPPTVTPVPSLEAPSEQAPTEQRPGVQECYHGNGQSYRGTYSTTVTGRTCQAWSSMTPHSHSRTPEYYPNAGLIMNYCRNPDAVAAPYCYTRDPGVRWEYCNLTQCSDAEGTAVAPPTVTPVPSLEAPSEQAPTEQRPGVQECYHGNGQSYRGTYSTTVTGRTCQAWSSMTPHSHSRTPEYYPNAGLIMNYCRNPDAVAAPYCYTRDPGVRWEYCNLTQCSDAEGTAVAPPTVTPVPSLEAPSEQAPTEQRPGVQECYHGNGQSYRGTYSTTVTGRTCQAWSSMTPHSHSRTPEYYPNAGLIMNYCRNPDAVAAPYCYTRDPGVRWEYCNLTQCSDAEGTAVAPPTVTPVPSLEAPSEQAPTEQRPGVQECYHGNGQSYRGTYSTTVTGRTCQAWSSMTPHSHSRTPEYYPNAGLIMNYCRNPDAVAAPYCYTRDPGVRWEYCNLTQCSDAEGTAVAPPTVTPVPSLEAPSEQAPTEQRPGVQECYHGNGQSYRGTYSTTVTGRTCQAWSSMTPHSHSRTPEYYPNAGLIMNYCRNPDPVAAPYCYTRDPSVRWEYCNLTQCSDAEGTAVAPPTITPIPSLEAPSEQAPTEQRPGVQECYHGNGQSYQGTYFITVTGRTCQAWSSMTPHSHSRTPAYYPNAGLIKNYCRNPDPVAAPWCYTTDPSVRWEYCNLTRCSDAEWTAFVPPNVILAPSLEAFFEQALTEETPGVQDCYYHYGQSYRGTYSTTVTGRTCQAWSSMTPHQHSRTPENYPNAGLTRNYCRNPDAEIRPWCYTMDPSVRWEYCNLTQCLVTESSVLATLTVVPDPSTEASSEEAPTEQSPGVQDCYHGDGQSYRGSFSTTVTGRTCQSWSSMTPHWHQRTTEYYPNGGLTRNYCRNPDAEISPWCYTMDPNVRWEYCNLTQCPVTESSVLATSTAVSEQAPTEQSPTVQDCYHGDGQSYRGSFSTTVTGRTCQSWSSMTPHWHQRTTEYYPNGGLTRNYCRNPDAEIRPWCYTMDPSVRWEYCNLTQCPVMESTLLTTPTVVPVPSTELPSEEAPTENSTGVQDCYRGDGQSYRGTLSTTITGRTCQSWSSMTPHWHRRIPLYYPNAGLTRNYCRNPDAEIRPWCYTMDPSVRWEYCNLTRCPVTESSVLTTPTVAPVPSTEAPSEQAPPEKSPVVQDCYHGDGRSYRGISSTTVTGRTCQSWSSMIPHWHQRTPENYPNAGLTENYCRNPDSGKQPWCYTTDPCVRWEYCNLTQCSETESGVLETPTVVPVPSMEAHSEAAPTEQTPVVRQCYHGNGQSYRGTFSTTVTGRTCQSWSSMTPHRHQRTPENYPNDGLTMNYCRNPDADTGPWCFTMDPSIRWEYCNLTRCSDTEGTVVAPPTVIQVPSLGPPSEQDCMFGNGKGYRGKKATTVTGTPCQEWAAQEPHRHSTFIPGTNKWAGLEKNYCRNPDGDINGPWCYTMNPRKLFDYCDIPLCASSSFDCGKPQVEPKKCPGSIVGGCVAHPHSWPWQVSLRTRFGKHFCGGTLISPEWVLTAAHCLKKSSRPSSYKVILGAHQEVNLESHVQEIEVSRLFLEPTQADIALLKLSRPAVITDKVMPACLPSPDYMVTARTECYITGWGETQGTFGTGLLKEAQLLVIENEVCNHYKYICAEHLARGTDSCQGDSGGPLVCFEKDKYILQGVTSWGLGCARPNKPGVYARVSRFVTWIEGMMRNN
Format: binding
Procedure: • 1. Experimental purpose: The purpose of this test is to test the affinity of the compounds of the present disclosure to Apo(a) • 2. Experimental instruments and reagents: • Molecular interaction analyzer (ForteBio Octet red 96e), • SA sensor (ForteBio), • 96-well plates were purchased from Greine, • 3. Experimental methods:
Prepared two 96-well plates, one as a sample plate and another as a pre-wett plate, curing buffer was added to a 200 μL well of the pre-wet plate, and the SA sensor was pre-wetted for at least ten minutes. All reagents and samples were added to another black sample plate, after the sample addition was completed, the sensor plate and the sample plate were placed into the ForteBio Octet red 96e instrument. The program was set up in sequence for detection. The experimental temperature was set to 30° C. and the acquisition frequency was set at 5.0 Hz. The biosensor was run in 1×PBS, pH7.4, 0.02% Tween-20, 0.1% BSA in the first column for 60 seconds, which was the baseline step. Biotinylated apolipoprotein(a) was diluted to 40 μg/ml with 1×PBS, pH7.4, 0.02% Tween-20, 0.1% BSA, and added to the second column, where it was run for a period of time until the amount of curing on the sensor reaches 2.0 nm. The biosensor was run in 1×PBS, pH7.4, 0.02% Tween-20, 0.1% BSA in the third column for 60 seconds, which was the baseline step. The compound was diluted to 100 nM with 1×PBS, pH7.4, 0.02% Tween-20, 0.1% BSA, and added to the fourth column, where the sensor was run for 60 seconds. The sensor was run in 1×PBS, pH7.4, 0.02% Tween-20, 0.1% BSA in the third column for 120 seconds, during this process, the compound dissociated from the sensor. The affinity constant KD reflects the size of the interaction binding ability. When the concentration of the analyte is at KD, the equilibrium signal Req is half of Rmax.
A Kd of 14.2 nM was found for `O=C(O)[C@@H](Cc1cccc(CN(Cc2cccc(C[C@H](C(=O)O)[C@H]3CCNC3)c2)Cc2cccc(C[C@H](C(=O)O)[C@H]3CCNC3)c2)c1)C1CNC1` [Example 11] in this work.
A Kd of 18.7 nM was found for `O=C(NCCN(CCNC(=O)c1cccc(C[C@H](C(=O)O)[C@H]2CCNC2)c1)CCNC(=O)c1cccc(C[C@H](C(=O)O)[C@H]2CCNC2)c1)c1cccc(C[C@H](C(=O)O)[C@H]2CCNC2)c1` [Example 8] in this work.
A Kd of 19.9 nM was found for `O=C(O)[C@@H](Cc1cccc(COC2CC(OCc3cccc(C[C@H](C(=O)O)[C@H]4CCNC4)c3)CC(OCc3cccc(C[C@H](C(=O)O)[C@H]4CCNC4)c3)C2)c1)[C@H]1CCNC1` (some centres unmarked) [Example 6] in this work.
A Kd of 25.3 nM was found for `O=C(O)[C@@H](Cc1cccc(OCc2cc(COc3cccc(C[C@H](C(=O)O)[C@H]4CCNC4)c3)cc(COc3cccc(C[C@H](C(=O)O)[C@H]4CCNC4)c3)c2)c1)[C@H]1CCNC1` [Example 10] in this work.
A Kd of 8.06 nM was found for `O=C(O)[C@@H](Cc1cccc(Oc2nc(Oc3cccc(C[C@H](C(=O)O)[C@H]4CCNC4)c3)nc(Oc3cccc(C[C@H](C(=O)O)[C@H]4CCNC4)c3)n2)c1)[C@H]1CCNC1` [Example 7] in this work.
